This is an account of results in patent US20240398783A1, “Compounds and Pharmaceutical Compositions Comprising Inhibitors of Amyloid Peptide Interactions with Glycosaminoglycans, Methods of Treatment and Use Thereof” (Gismo Therapeutics, Inc., priority 2021, published 2024).

Structures can show the parent of a compound that is named as a salt. Where two headings read alike, the source gives them in different places.

In assay [1] the target is Tau binding to purified human brain membranes (Homo sapiens, UniProt P10636). As to the kind of experiment: Inhibition of Tau binding to purified human brain cell membranes (ELISA). As to the method:
(§1) Purified human brain cell membranes were prepared by differential centrifugation as follows. Five grams of frozen human brain postmortem tissue (obtained from University of Kentucky Alzheimer's Disease Center Tissue Bank) was homogenized in 50 ml HEPES-Buffered sucrose (0.32M sucrose, 4 mM HEPES pH7.4, protease inhibitors) with a motor driven glass-teflon homogenizer. After removing nuclear and cell debris by centrifugation of homogenates at 1,000×g for 10 min at 4 degree Celsius, post-nuclear supernatant was centrifuged at 100,000×g for 30 minutes to yield the crude membrane pellet. Crude membrane pellet was re-suspended in 0.32M sucrose, then centrifuged again at 100,000×g for 30 minutes to yield washed membrane pellet. Membrane pellet was resuspended in sterile PBS (pH7.4), quickly frozen, and kept in aliquots at −80 degrees Celsius. This preparation contains human brain cell membranes. Protein concentration was measured with BCA protein assay kit (Pierce Cat. No. 23227). Purified brain membranes were diluted to 0.01 mg/ml in PBS (pH 7.4) and then added to a 96 well polystyrene ELISA plate (NUNC Cat. No. 449824; 100 μl per well). Plates were incubated Over Night (ON) at 4 degrees Celsius. Following the incubation, the plate was washed consecutively, by immersion, with de-ionized water and PBS (pH 7.4). The ELISA plate was then blocked with nonfat milk (2%, 200 μl per well) for 2 hours at Room Temperature (RT). Following blocking, the plate was washed with de-ionized water then PBS (pH 7.4). GBAPs were dissolved and diluted in PBS (pH 6.5, supplemented with 0.1% BSA) at desired concentrations, added to the ELISA plates coated with brain membranes (100 μl per well) and incubated for 2 hours at RT with gentle shaking. Following incubation, the plate was washed with de-ionized water and three times with PBS (pH 6.5) plus Tween. Bound GBAP was detected by a monoclonal antibody specific for that GBAP, followed by incubation with secondary antibody conjugated to horseradish peroxidase (HRP). Antibody was diluted in PBS (pH6.5 supplemented with 1% BSA). Following each incubation with antibody, the plate was washed with de-ionized water and three times with PBS (pH6.5) wash buffer containing 0.1% Tween. The peroxidase substrate chromogen, TMB (Dako Cat. No. S1599) was added (100 μl per well) to the ELISA plate and incubated at room temperature. After 5 minutes ELISA Stop Solution (hydrochloric acid 1N, sulfuric acid 3N) was added (100 μl per well) to stop the peroxidase catalyzed colorimetric reaction. The Optical Density of the samples was measured at 450 nm using an ELISA plate reader (BioTek Synergy H1). Following color development, the % inhibition compared to control was determined. IC-50s were calculated using GraphPad Prism software.
The assay was performed as described in Example 49, with the following modifications.
Following to coating the plates with purified human brain cell membranes, plates were washed as described. The compounds were dissolved in DMSO at 10 mM final concentration and further diluted prior to assay. DMSO concentration in the screening well was up to 2%. Individual compounds were co-incubated with Tau on plates coated with purified human brain membranes. Tau purchased from rPeptide (Cat. No. T1001) was dissolved in DMSO (Sigma Cat. No. D2650), quickly frozen and kept in aliquots at −80 degrees Celsius. Tau dissolved in PBS (pH 6.5, supplemented with BSA, 0.1%) was added to the ELISA plate (100 μl per well) and incubated for 2 hours at RT with gentle shaking. Following the incubation, the plate was washed with de-ionized water and three times with PBS (pH 6.5) plus Tween. Bound Tau was detected by anti-Tau Monoclonal Antibody D-8 (Santa Cruz Cat. No. sc-166060), followed by secondary anti-IgG antibody conjugated to HRP (R&D System, Cat. No. HAF007). Following to color development with TMB, as described in Example 49, the Optical Density of the samples was measured at 450 nm using an ELISA plate reader. […]
Background: An ELISA detects its analyte on a solid surface through an enzyme-linked reagent.

Assay [2] has as its target TDP-43 binding to purified human brain membranes (Homo sapiens, UniProt Q13148). As to the kind of experiment: Inhibition of TDP-43 binding to purified human brain cell membranes (ELISA). The note with it: TDP-43, purified human brain membranes. As to the method: as §1
The assay was performed as described in Example 49, with the following modifications. Following to coating the plates with purified human brain cell membranes, plates were washed as described. The compounds were dissolved in DMSO at 10 mM final concentration and further diluted prior to assay. DMSO concentration in the screening well was up to 2%. Individual compounds were co-incubated with TDP-43 on plates coated with brain membranes. TDP43 from R&D System (Cat. No. AP-190) was quickly frozen and kept in aliquots at −80 degrees Celsius. TDP-43 dissolved in PBS (pH 6.5, supplemented with BSA, 0.1%) was added to the ELISA plate (100 μl per well) and incubated for 2 hours at RT with gentle shaking. Following the incubation, the plate was washed with de-ionized water and three times with PBS (pH 6.5) plus Tween. Bound TDP-43 was detected by Anti-TDP43 Monoclonal Antibody (R&D System Cat. No. MAB7778), followed by secondary anti-IgG antibody conjugated to HRP (R&D System, Cat. No. HAF007). Following to color development with TMB, as described in Example 49, the Optical Density of the samples was measured at 450 nm using an ELISA plate reader. […]

Setting [3] is: TDP43/Membrane Activity (IC-50).
Setting [4] is: Tau, purified human brain membranes, read-out: Tau/Membrane Activity (IC-50).
Setting [5] is: read-out: TDP43/Membrane Activity (IC-50).

Chain of TDP-43 binding to purified human brain membranes (Q13148 whole entry): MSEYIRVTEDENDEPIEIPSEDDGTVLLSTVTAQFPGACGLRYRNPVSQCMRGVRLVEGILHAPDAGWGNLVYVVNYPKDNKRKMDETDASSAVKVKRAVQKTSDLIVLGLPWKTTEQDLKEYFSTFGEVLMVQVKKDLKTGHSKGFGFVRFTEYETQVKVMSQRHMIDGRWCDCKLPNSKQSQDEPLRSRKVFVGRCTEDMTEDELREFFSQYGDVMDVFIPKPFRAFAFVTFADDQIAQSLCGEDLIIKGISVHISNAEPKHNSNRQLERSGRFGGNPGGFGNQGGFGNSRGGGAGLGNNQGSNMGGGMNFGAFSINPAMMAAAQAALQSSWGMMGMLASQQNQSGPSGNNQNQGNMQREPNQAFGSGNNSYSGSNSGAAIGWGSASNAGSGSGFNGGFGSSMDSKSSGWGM
Chain of Tau binding to purified human brain membranes (P10636 with tags, fused parts or gaps): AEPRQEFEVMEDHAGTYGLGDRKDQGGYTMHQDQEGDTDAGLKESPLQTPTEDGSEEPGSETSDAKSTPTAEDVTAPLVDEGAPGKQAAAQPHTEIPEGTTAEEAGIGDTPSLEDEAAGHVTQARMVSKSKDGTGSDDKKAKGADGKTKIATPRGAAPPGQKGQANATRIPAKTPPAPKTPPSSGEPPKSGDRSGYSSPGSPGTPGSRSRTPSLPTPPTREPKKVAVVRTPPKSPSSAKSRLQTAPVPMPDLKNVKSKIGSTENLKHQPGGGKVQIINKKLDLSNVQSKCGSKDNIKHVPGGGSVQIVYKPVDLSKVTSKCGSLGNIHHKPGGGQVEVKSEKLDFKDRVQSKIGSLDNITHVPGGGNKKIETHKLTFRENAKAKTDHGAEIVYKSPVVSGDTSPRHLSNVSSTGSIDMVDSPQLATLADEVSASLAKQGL

With `Clc1ccc2c(N/N=C/c3ccc(-n4ccnc4)nc3)ccnc2c1` [Compound 14, (E)-4-(2-((6-(1H-imidazol-1-yl)pyridin-3-yl)methylene)hydrazineyl)-7-chloroquinoline hydrochloride], the figures for the IC50 in assay [1] and in assay [2] (setting [3]) were 1.86 µM and 4.01 µM, respectively.
`C/C(=N\Nc1ncnc2cc(Cl)ccc12)c1ccc(-n2cnc(C)c2C)nc1` [Compound 16, 7-chloro-4-(2-(1-(6-(4,5-dimethyl-1H-imidazol-1-yl)pyridin-3-yl)ethylidene)hydrazineyl)quinazoline phosphate]: the IC50 stood at 9.61 µM in assay [1] and 2.11 µM in assay [2] (setting [3]).
`C/C(=N\Nc1nncc2cc(Cl)ccc12)c1ccc(-n2cc(C)nc2C)nc1` [Compound 24, (E)-6-chloro-1-(2-(1-(6-(2,4-dimethyl-1H-imidazol-1-yl)pyridin-3-yl)ethylidene)hydrazineyl)phthalazine]: the IC50 in assay [1] (setting [4]) was determined as 2.56 µM; in assay [2] (setting [5]), 4 µM.
In the case of `Clc1ccc2c(N/N=C/c3ccc(-n4ccnc4)cc3)ccnc2c1` [Compound 38, 4-(2-(4-(1H-imidazol-1-yl)benzylidene)hydrazineyl)-7-chloroquinoline dihydrochloride], the results for the IC50 in assay [1] and in assay [2] (setting [3]) were 4.86 µM and 6.17 µM, respectively.
`Cc1ncn(-c2ncc(Nc3ncnc4cc(Cl)ccc34)cc2O)c1C` [Compound 40, 5-((7-chloroquinazolin-4-yl)amino)-2-(4,5-dimethyl-1H-imidazol-1-yl)pyridin-3-ol phosphoric acid salt]: the IC50 turned out to be 65.1 µM in assay [1] and 5.28 µM in assay [2] (setting [3]).
On to `Clc1ccc2c(Nc3ccc(-n4ccnc4)nc3)ncnc2c1` [Compound 41, N-(6-(1H-imidazol-1-yl)pyridin-3-yl)-7-chloroquinazolin-4-amine], for which the IC50 in assay [1] (setting [4]) came out at 5.58 µM; in assay [2] (setting [5]), 8.32 µM.
